Source: BigSolDB 2.1

Compound	solubility (mole fraction) (in acetone, 283.2 K)	solubility (mole fraction) (in acetone, 288.2 K)	solubility (mole fraction) (in acetone, 293.2 K)	solubility (mole fraction) (in acetone, 299.2 K)	solubility (mole fraction) (in acetone, 303.2 K)	solubility (mole fraction) (in acetone, 308.2 K)	solubility (mole fraction) (in chloroform, 283.2 K)	solubility (mole fraction) (in chloroform, 288.2 K)	solubility (mole fraction) (in chloroform, 293.2 K)	solubility (mole fraction) (in chloroform, 299.2 K)	solubility (mole fraction) (in chloroform, 303.2 K)	solubility (mole fraction) (in chloroform, 308.2 K)	solubility (mole fraction) (in ethyl acetate, 283.2 K)	solubility (mole fraction) (in ethyl acetate, 288.2 K)	solubility (mole fraction) (in ethyl acetate, 293.2 K)	solubility (mole fraction) (in ethyl acetate, 299.2 K)	solubility (mole fraction) (in ethyl acetate, 303.2 K)	solubility (mole fraction) (in ethyl acetate, 308.2 K)	solubility (mole fraction) (in methanol, 283.2 K)	solubility (mole fraction) (in methanol, 288.2 K)	other results
O=c1cc(-c2ccccc2)c2cc(O)c(O)cc2o1	0.0022	0.00228	0.00237	0.00246	0.00266	0.00299	3.75e-08	4.16e-08	5.93e-08	7.09e-08	1.04e-07	1.71e-07	0.000553	0.000572	0.000616	0.000928	0.00101	0.00139	0.000986	0.00102	solubility (mole fraction) (in methanol, 293.2 K): 0.0011; solubility (mole fraction) (in methanol, 299.2 K): 0.00129; solubility (mole fraction) (in methanol, 303.2 K): 0.00147; solubility (mole fraction) (in methanol, 308.2 K): 0.00179; solubility (mole fraction) (in n-hexane, 283.2 K): 2.04e-08; solubility (mole fraction) (in n-hexane, 288.2 K): 4.3e-08; solubility (mole fraction) (in n-hexane, 293.2 K): 5.6e-08; solubility (mole fraction) (in n-hexane, 299.2 K): 7.86e-08; solubility (mole fraction) (in n-hexane, 303.2 K): 8.43e-08; solubility (mole fraction) (in n-hexane, 308.2 K): 1.35e-07; solubility (mole fraction) (in water, 283.2 K): 7.94e-08; solubility (mole fraction) (in water, 288.2 K): 1.39e-07; solubility (mole fraction) (in water, 293.2 K): 1.92e-07; solubility (mole fraction) (in water, 299.2 K): 2.39e-07; solubility (mole fraction) (in water, 303.2 K): 2.51e-07; solubility (mole fraction) (in water, 308.2 K): 3.57e-07
COc1cc2oc(=O)cc(-c3ccccc3)c2cc1O	0.00229	0.00237	0.00256	0.0027	0.00326	0.0037	0.00313	0.00361	0.00374	0.00414	0.00457	0.0059	0.0014	0.00153	0.00165	0.00193	0.00204	0.00223	0.000504	0.000516	solubility (mole fraction) (in methanol, 293.2 K): 0.000542; solubility (mole fraction) (in methanol, 299.2 K): 0.000646; solubility (mole fraction) (in methanol, 303.2 K): 0.000722; solubility (mole fraction) (in methanol, 308.2 K): 0.000835; solubility (mole fraction) (in n-hexane, 283.2 K): 3.88e-06; solubility (mole fraction) (in n-hexane, 288.2 K): 4.03e-06; solubility (mole fraction) (in n-hexane, 293.2 K): 4.09e-06; solubility (mole fraction) (in n-hexane, 299.2 K): 4.48e-06; solubility (mole fraction) (in n-hexane, 303.2 K): 4.76e-06; solubility (mole fraction) (in n-hexane, 308.2 K): 5.36e-06; solubility (mole fraction) (in water, 283.2 K): 1.03e-07; solubility (mole fraction) (in water, 288.2 K): 1.11e-07; solubility (mole fraction) (in water, 293.2 K): 1.12e-07; solubility (mole fraction) (in water, 299.2 K): 1.12e-07; solubility (mole fraction) (in water, 303.2 K): 1.44e-07; solubility (mole fraction) (in water, 308.2 K): 1.64e-07
